Experimental data published in ChEMBL document CHEMBL4334498, “Structures, NMR Spectroscopic Features, and Cytotoxic Properties of Oligomeric Hellinoyl (m-GO-m-GOG)-Type Ellagitannins from the Galls of Tamarix aphylla” (J Nat Prod, 2019).

Key:
Ca9-22 = experiment: Cytotoxicity against human Ca9-22 cells assessed as reduction in cell viability incubated for 48 hrs by MTT assay; assay type: functional; details: Ca9-22, 48 h
HSC-2 = experiment: Cytotoxicity against human HSC2 cells assessed as reduction in cell viability incubated for 48 hrs by MTT assay; assay type: functional; details: HSC-2, 48 h
HSC-4 = experiment: Cytotoxicity against human HSC4 cells assessed as reduction in cell viability incubated for 48 hrs by MTT assay; assay type: functional; details: HSC-4, 48 h
[1] = Cytotoxicity against human HGF cells assessed as reduction in cell viability incubated for 48 hrs by MTT assay; assay type: cell-based
[2] = Cytotoxicity against human HPLF cells assessed as reduction in cell viability incubated for 48 hrs by MTT assay; assay type: cell-based
[3] = Cytotoxicity against human Pulp Cell cells assessed as reduction in cell viability incubated for 48 hrs by MTT assay; assay type: cell-based

Structure (SMILES) | CC50 (Ca9-22) | CC50 (HSC-2) | CC50 (HSC-4) | CC50 at 48 h [1] | CC50 at 48 h [2] | CC50 at 48 h [3]
O=C(O)c1cc(O)c(O)c(Oc2c(C(=O)O)cc(Oc3c(C(=O)O)cc(O)c(O)c3O)c(O)c2O)c1 | 345 µM | 246 µM | 153 µM | > 395 µM | > 395 µM | > 395 µM
O=C(O[C@@H]1O[C@@H]2COC(=O)c3cc(O)c(O)c(O)c3-c3c(cc(O)c(O)c3O)C(=O)O[C@H]2[C@H](OC(=O)c2cc(O)c(O)c(O)c2)[C@H]1OC(=O)c1cc(O)c(O)c(O)c1Oc1cc(C(=O)O[C@@H]2O[C@@H]3COC(=O)c4cc(O)c(O)c(O)c4-c4c(cc(O)c(O)c4O)C(=O)O[C@H]3[C@H](OC(=O)c3cc(O)c(O)c(O)c3)[C@H]2OC(=O)c2cc(O)c(O)c(O)c2Oc2cc3c(c(O)c2O)Oc2cc(cc(O)c2O)C(=O)O[C@@H]2O[C@@H]4COC(=O)c5cc(O)c(O)c(O)c5-c5c(cc(O)c(O)c5O)C(=O)O[C@H]4[C@H](OC(=O)c4cc(O)c(O)c(O)c4)[C@H]2OC3=O)cc(O)c1O)c1cc(O)c(O)c(Oc2c(C(=O)O[C@H]3C(O)O[C@@H]4COC(=O)c5cc(O)c(O)c(O)c5-c5c(cc(O)c(O)c5O)C(=O)O[C@H]4[C@@H]3OC(=O)c3cc(O)c(O)c(O)c3)cc(O)c(O)c2O)c1 (stereo not given in full) | 35 µM | 25 µM | 24 µM | > 56 µM | > 56 µM | > 56 µM
O=C(O[C@@H]1O[C@@H]2COC(=O)c3cc(O)c(O)c(O)c3-c3c(cc(O)c(O)c3O)C(=O)O[C@H]2[C@H](OC(=O)c2cc(O)c(O)c(O)c2)[C@H]1OC(=O)c1cc(O)c(O)c(O)c1Oc1cc2c(c(O)c1O)Oc1cc(cc(O)c1O)C(=O)O[C@@H]1O[C@@H]3COC(=O)c4cc(O)c(O)c(O)c4-c4c(cc(O)c(O)c4O)C(=O)O[C@H]3[C@H](OC(=O)c3cc(O)c(O)c(O)c3)[C@H]1OC2=O)c1cc(O)c(O)c(Oc2c(C(=O)O[C@H]3C(O)O[C@@H]4COC(=O)c5cc(O)c(O)c(O)c5-c5c(cc(O)c(O)c5O)C(=O)O[C@H]4[C@@H]3OC(=O)c3cc(O)c(O)c(O)c3)cc(O)c(O)c2O)c1 (stereo not given in full) | 27 µM | 23 µM | 26 µM | > 75 µM | > 75 µM | > 75 µM
O=C(OC[C@H]1O[C@H]2OC(=O)c3cc(O)c(O)c(c3)Oc3c(cc(Oc4c(C(=O)O[C@H]5[C@H](OC(=O)c6cc(O)c(O)c(O)c6)O[C@@H]6COC(=O)c7cc(O)c(O)c(O)c7-c7c(cc(O)c(O)c7O)C(=O)O[C@H]6[C@@H]5OC(=O)c5cc(O)c(O)c(O)c5)cc(O)c(O)c4O)c(O)c3O)C(=O)O[C@@H]2[C@@H](OC(=O)c2cc(O)c(O)c(O)c2)[C@@H]1O)c1cc(O)c(O)c(O)c1 | 25 µM | 21 µM | 21 µM | > 116 µM | > 116 µM | > 116 µM
COc1cccc2c1C(=O)c1c(O)c3c(c(O)c1C2=O)C[C@@](O)(C(=O)CO)C[C@@H]3O[C@H]1C[C@H](N)[C@H](O)[C@H](C)O1 [DOXORUBICIN] | 0.7 µM |  | 0.1 µM | > 10 µM | > 10 µM | > 10 µM
O=c1[nH]cc(F)c(=O)[nH]1 [FLUOROURACIL] | 262 µM | 47 µM | 25 µM | > 1000 µM | > 1000 µM | > 1000 µM
